Measured values: patent publication US7144733B2, “Bio-synthetic photostimulators and methods of use” (Sloan-Kettering Institute for Cancer Research, priority 2001, dated 2006)
“Also recorded” adds a separate entry of the source.

Tests used:
[1] = tested on: hippocampal neurons; assay: Photostimulation of chARGed hippocampal neurons in primary culture, whole-cell current clamp; assay type: cell-based; details: 50 μM AP-5 plus 10 μM CNQX together; n=5 neurons
Procedure: (§1) Synthetic all-trans retinal (Sigma) was diluted, from a 100-mM stock in DMSO, to 40 μM in the appropriate extracellular recording solution (see below) and allowed to bind to NinaE for 15 min in the dark. A mechanically shuttered (Uniblitz, Vincent Associates) Lambda DG-4 rapid wavelength changer (Sutter Instruments) delivered <2 mW of stimulating light without ultraviolet and infrared (E400LP, Chroma; Hot Mirror, Newport) components through 20×/0.4 (oocytes) or 40×/0.8 W (neurons) Zeiss Achroplan objectives. In some experiments, a short pre-illumination with red light (E600LP plus HQ625/40, both from Chroma) preceded the white-light stimulus. Light source and shutter were controlled through pClamp 8.0 (Axon Instruments) and MetaFluor 4.5 (Universal Imaging).
Hippocampal neurons obtained from E19 rats were grown in dissociated cultures (Yuste, Miller et al. “Synapto-pHluorins: chimeras between pH-sensitive mutants of green fluorescent protein and synaptic vesicle membrane proteins as reporters of neurotransmitter release,” Methods Enzymol 522–46 (2000)) and transfected with a calcium phosphate precipitate (pH 7.08) formed from a 1:1 mixture of CsCl-banded pChARGe-1 and pChARGe-2. Neurons were exposed to 4.2 μg/cm^2 of precipitated DNA for 20 minutes. Transfections were done on day 8 after plating, recordings on days 6–10 after transfection. Neurons were identified under DIC and epifluorescence illumination (to distinguish transfected from untransfected cells; FIG. 3) and placed under whole-cell current clamp before reconstitution of NinaE with retinal. Patch pipettes (˜2.5 MΩ) contained, in mM, 120 K-gluconate, 10 KCl, 5 ATP, 0.3 GTP, and 10 K-HEPES, pH 7.2. The extracellular recording solution contained, in mM, 119 NaCl, 2.5 KCl, 2 CaCl2, 1 MgCl2, 30 glucose, 25 Na-HEPES, pH 7.4. Membrane potentials were recorded with an Axoclamp-2B amplifier (Axon Instruments) in bridge mode and digitized at 5 kHz (Digidata 1200, Axon Instruments).
For intracellular recordings of light-evoked electrical activity, neurons were placed under whole-cell current clamp before reconstitution of NinaE with retinal. […] Exposure to white light increased the frequency of action potentials dramatically (FIGS. 4, A–D, and FIG. 5). Peak firing frequencies of 7.5 Hz (evaluated in sliding 2-s windows), equal to those generated by the direct injection of 200–250 pA of sustained depolarizing current into transfected and untransfected neurons, appeared after latency periods of a few hundred ms to several tens of s (n=18 neurons). […]

[2] = tested on: Xenopus oocytes; assay: Light-evoked photocurrents in voltage-clamped Xenopus oocytes expressing Drosophila phototransduction proteins; assay type: cell-based
Procedure: as §1
Stage VI oocytes were microinjected with the specified mRNA mixtures, which were adjusted to keep the doses of individual messages constant at 2–4 fmol/oocyte. Photocurrents were recorded at −80 mV with a two-electrode voltage-clamp amplifier (Axoclamp-2B, Axon Instruments) 2–4 days after mRNA injection. Electrodes (2–3 MΩ) were filled with 3 M KCl; the extracellular recording solution (Barth's Saline) contained, in mM, 87.5 NaCl, 2 KCl, 2.4 NaHCO3, 2 CaCl2, 1 MgCl2, 5 Tris-HCl, pH 7.2. Signals were externally amplified (CyberAmp 380, Axon Instruments) before digitization at 100 Hz (Digidata 1200, Axon Instruments). To block IP3-sensitive Ca^2+ stores where indicated, 20 μM xestospongin C (Gafni et al., 1997; Calbiochem) was present throughout the experiment, beginning with the retinal load.
Unliganded NinaE in the membrane of voltage-clamped oocytes was reconstituted in the dark with 40 μM synthetic all-trans retinal, to form a metarhodopsin-like intermediate that could be further photoconverted (Hillman et al., 1983; Kiselev and Subramaniam, 1994; Ranganathan and Stevens, 1995) to rhodopsin. […]

SMILES | EPSPs in the membrane potential record under glutamate receptor block [1] | light-induced action potentials under glutamate receptor block [1] | dependence of light-evoked current responses on reconstitution of NinaE with retinal ([2]; 40 μM all-trans retinal, 15 min in the dark, n=9 oocytes) | photocurrent over time after a single retinal load, in the absence of exogenous retinal ([2]; NinaE reconstituted with 40 μM all-trans retinal for 15 min, then retinal-free perfusion for hours, n=8 oocytes) | light-evoked current responses in the presence of xestospongin C ([2]; 20 μM xestospongin C present throughout, oocytes expressing 10 photoreceptor proteins, n=5 oocytes)
NC(CCCP(=O)(O)O)C(=O)O (racemic) [AP-5, D,L-2-amino-5-phosphonovaleric acid] | vanished; also recorded: elimination | persisted | – | – | –
N#Cc1cc2c(cc1[N+](=O)[O-])=NC(=O)C(=O)N=2 [CNQX, 6-cyano-7-nitroquinoxaline-2,3-dione] | vanished; also recorded: elimination | persisted | – | – | –
CC1=C(/C=C/C(C)=C/C=C/C(C)=C/C=O)C(C)(C)CCC1 [all-trans retinal] | – | – | required | no attenuation | –
C1CCC[C@H]2CCCN3CC[C@@H](CCCCCC[C@@H]4CCCN5CC[C@@H](CC1)O[C@@H]45)O[C@@H]23 [xestospongin C] | – | – | – | – | inhibited
